Data reported in US6875760B2 (Novo Nordisk A/S, priority 1999, dated 2005).

The compounds below were run against T1, human glucagon receptor (Homo sapiens, UniProt P47871) (assay: Glucagon Binding Assay (III)). Settings: BHK cell membranes, WGA SPA beads, 125I-glucagon; read-out: Glu Bd Assay (III) IC50.
T1 construct: expressed in transfected cells; host or cells: BHK (baby hamster kidney) cells
How it was run: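 Membranes from BHK cells transfected with the human receptor, prepared at 4 °C, were used in a WGA-bead scintillation proximity binding format. Plates were shaken for 4 hours, left to settle 8–48 hours and then counted. Non-specific binding was defined with 500 nM glucagon.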

T1 sequence (P47871 26-477): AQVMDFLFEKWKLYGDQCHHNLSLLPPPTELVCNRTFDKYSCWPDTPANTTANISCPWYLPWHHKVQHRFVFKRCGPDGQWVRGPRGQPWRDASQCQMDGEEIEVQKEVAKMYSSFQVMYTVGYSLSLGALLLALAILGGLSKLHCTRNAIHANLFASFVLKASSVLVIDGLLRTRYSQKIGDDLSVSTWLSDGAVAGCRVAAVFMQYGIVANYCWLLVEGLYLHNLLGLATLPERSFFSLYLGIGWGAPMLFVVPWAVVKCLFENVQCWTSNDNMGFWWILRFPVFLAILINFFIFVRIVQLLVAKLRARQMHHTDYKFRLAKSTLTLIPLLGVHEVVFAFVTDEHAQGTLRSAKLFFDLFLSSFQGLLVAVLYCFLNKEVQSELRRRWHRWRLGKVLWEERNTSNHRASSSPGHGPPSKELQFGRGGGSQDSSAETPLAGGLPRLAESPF

In order of falling IC50:
1. O=C(O)c1ccc2nc(NC(=O)N(Cc3ccc(C(=O)Nc4nn[nH]n4)cc3)c3ccc(C4CCCCC4)cc3)sc2c1 [Example 364, 2-{3-(4-Cyclohexylphenyl)-3-[4-(2H-tetrazol-5-ylcarbamoyl)benzyl]ureido}benzothiazole-6-carboxylic acid]  2680 nM
2. O=C(O)CCNC(=O)c1ccc(CN(C(=O)Nc2ccc(OC(F)(F)F)cc2)C2CCN(C(=O)C3CC3)CC2)cc1 [Example 381, 3-{4-[1-(1-Cyclopropanecarbonylpiperidin-4-yl)-3-(4-trifluoromethoxyphenyl)ureidomethyl]benzoylamino}propionic acid]  1980 nM
3. COc1ccc2nc(NC(=O)N(Cc3ccc(C(=O)Nc4nn[nH]n4)cc3)c3ccc(C4CCCCC4)cc3)sc2c1 [Example 365, 4-[1-(4-Cyclohexylphenyl)-3-(6-methoxybenzothiazol-2-yl)ureidomethyl]-N-(2H-tetrazol-5-yl)benzamide]  1430 nM
4. O=C(O)CCNC(=O)c1ccc(CN(C(=O)Nc2ccc(OC(F)(F)F)cc2)C(=O)Nc2ccc(OC(F)(F)F)cc2)cc1 [Example 383, 3-{4-[1,5-Bis(4-trifluoromethoxyphenyl)-3-biuretmethyl]benzoylamino}propionic acid]  931 nM
5. CCN(CC)C(=O)C1CCC(N(Cc2ccc(C(=O)NCCC(=O)O)cc2)C(=O)Nc2ccc(OC(F)(F)F)cc2)CC1 (stereo not shown) [Example 382, 3-{4-[1-(4-Diethylcarbamoylcyclohexyl)-3-(4-trifluoromethoxyphenyl)ureidomethyl]benzoylamino}propionic acid]  781 nM
6. CS(=O)(=O)Cc1cccc(NC(=O)N(Cc2ccc(C(=O)Nc3nn[nH]n3)cc2)c2ccc(C3CCCCC3)cc2)c1 [Example 369, 4-[1-(4-Cyclohexylphenyl)-3-(3-methylsulfonylmethylphenyl)ureidomethyl]-N-(2H-tetrazol-5-yl)benzamide]  558 nM
7. CC(C)(C)[C@H]1CC[C@H](N(Cc2ccc(C(=O)NCCC(=O)NO)cc2)C(=O)Nc2ccc(OC(F)(F)F)cc2)CC1 [Example 376, 4-[1-(trans-4-tert-Butylcyclohexyl)-3-(4-trifluoromethoxyphenyl)ureidomethyl]-N-(2-hydroxycarbamoylethyl)benzamide]  391 nM
8. O=C(O)CCNC(=O)c1ccc(CN(Cc2ccc(C(F)(F)F)cc2)Cc2ccc(C(F)(F)F)cc2)cc1 [Example 384, 3-(4-{[Bis(4-trifluoromethylbenzyl)amino]methyl}benzoylamino)propionic acid]  324 nM
9. CC(C)(C)C1CCC(N(Cc2ccc(C(=O)NCCC(=O)O)cc2)C(=O)Oc2ccc(-c3ccccc3)cc2)CC1 (stereo not shown) [Example 398, 3-(4-{[(Biphenyl-4-yloxycarbonyl)-(4-tert-butylcyclohexyl)amino]methyl}benzoylamino)propionic acid]  135 nM
10. O=C(Nc1nn[nH]n1)c1ccc(CN(C(=O)NCc2cc(Cl)cc(Cl)c2)c2ccc(C3CCCCC3)cc2)cc1 [Example 397, 4-[1-(4-Cyclohexylphenyl)-3-(3,5-dichlorobenzyl)ureidomethyl]-N-(2H-tetrazol-5-yl)benzamide]  120 nM
11. O=C(Nc1nn[nH]n1)c1ccc(CN(C(=O)Nc2cc(C(F)(F)F)ccc2C(F)(F)F)c2ccc(C3=CCCCC3)cc2)cc1 [Example 361, 4-[3-(2,5-Bis(trifluoromethyl)phenyl)-1-(4-cyclohex-1-enylphenyl)ureidomethyl]-N-(2H-tetrazol-5-yl)benzamide]  119 nM
12. CC(C)(C)c1ccc(N(Cc2ccc(C(=O)NCCC(=O)O)cc2)C(=O)Nc2ccc(OC(F)(F)F)cc2)cc1 [Example 373, 3-{4-[1-(4-tert-Butylphenyl)-3-(4-trifluoromethoxyphenyl)ureidomethyl]benzoylamino}propionic acid]  96 nM
13. CCCCc1ccc(N(Cc2ccc(C(=O)NCCC(=O)O)cc2)C(=O)Nc2ccc(OC(F)(F)F)cc2)cc1 [Example 372, 3-{4-[1-(4-Butylphenyl)-3-(4-trifluoromethoxyphenyl)ureidomethyl]benzoylamino}propionic acid]  90 nM
14. Cn1nnc(-c2cccc(NC(=O)N(Cc3ccc(C(=O)Nc4nn[nH]n4)cc3)c3ccc(C(C)(C)C)cc3)c2)n1 [Example 370, 4-{1-(4-tert-Butylphenyl)-3-[3-(2-methyl-2H-tetrazol-5-yl)phenyl]ureidomethyl}-N-(2H-5-yl)benzamide]  87 nM
15. CC(C)(C)[C@H]1CC[C@H](N(Cc2ccc(C(=O)Nc3nn[nH]n3)cc2)NC(=O)c2ccc(OC(F)(F)F)cc2)CC1 [Example 380, 4-[N-(trans-4-tert-Butylcyclohexyl)-N′-(4-trifluoromethoxybenzoyl)hydrazinomethyl]-N-(2H-tetrazol-5-yl)benzamide]  71 nM
16. COc1cccc2cc(C(C)NC(=O)N(Cc3ccc(C(=O)Nc4nn[nH]n4)cc3)c3ccc(C4CCCCC4)cc3)ccc12 (stereo not shown) [Example 379, 4-{1-(4-Cyclohexylphenyl)-3-[1-(5-methoxynaphthalen-2-yl)ethyl]ureidomethyl}-N-(2H-tetrazol-5-yl)benzamide]  66 nM
17. Cn1nnc(-c2cccc(NC(=O)N(Cc3ccc(C(=O)Nc4nn[nH]n4)cc3)c3ccc(C4CCCCC4)cc3)c2)n1 [Example 371]  52 nM
18. CCCCOc1ccc(NC(=O)N(Cc2ccc(C(=O)Nc3nn[nH]n3)cc2)c2ccc(C3CCCCC3)cc2)cc1S(C)(=O)=O [Example 368, 4-[3-(4-Butoxy-3-methylsulfonylphenyl)-1-(4-cyclohexylphenyl)ureidomethyl]-N-(2H-tetrazol-5-yl)benzamide]  37 nM
19. COC(=O)c1cc(-c2cccc(NC(=O)N(Cc3ccc(C(=O)NCCC(=O)O)cc3)[C@H]3CC[C@H](C4CCCCC4)CC3)c2)oc1C [Example 392, 5-(3-{3-(trans-4-Cyclohexylcyclohexyl)-3-[4-(2-carboxyethylcarbamoyl)benzyl]ureido}phenyl)-2-methylfuran-3-carboxylic acid methyl ester]  36 nM
20. CCCCOc1ccc(NC(=O)N(Cc2ccc(C(=O)Nc3nn[nH]n3)cc2)c2ccc(C(C)(C)C)cc2)cc1S(C)(=O)=O [Example 367, 4-[3-(4-Butoxy-3-methylsulfonylphenyl)-1-(4-tert-butylphenyl)ureidomethyl]-N-(2H-tetrazol-5-yl)benzamide]  34 nM
21. CC(C)(C)[C@H]1CC[C@H](N(Cc2ccc(C(=O)Nc3nn[nH]n3)cc2)C(=O)Nc2cc(C(F)(F)F)cc(C(F)(F)F)c2)CC1 [Example 375, 4-[3-(3,5-Bis(trifluoromethyl)phenyl)-1-(trans-4-tert-butylcyclohexyl)ureidomethyl]-N-(2H-tetrazol-5-yl)benzamide]  29 nM
22. Cc1cc(NC(=O)N(Cc2ccc(C(=O)Nc3nn[nH]n3)cc2)C2CCC(C(C)(C)C)CC2)cc(C(F)(F)F)c1 (stereo not shown) [Example 363, 4-[1-(4-tert-Butylcyclohexyl)-3-(3-methyl-5-trifluoromethylphenyl)ureidomethyl]-N-(2H-tetrazol-5-yl)benzamide]  23 nM
23. CCCCN1C(=O)c2ccc(NC(=O)N(Cc3ccc(C(=O)Nc4nn[nH]n4)cc3)c3ccc(C(C)(C)C)cc3)cc2C1=O [Example 378, 4-[3-(2-Butyl-1,3-dioxo-2,3-dihydro-1H-isoindol-5-yl)-1-(4-tert-butylphenyl)ureidomethyl]-N-(2H-tetrazol-5-yl)benzamide]  23 nM
24. O=C(O)CCNC(=O)c1ccc(CN(C(=O)NCc2ccccc2-c2ccccc2)[C@H]2CC[C@H](C3CCCCC3)CC2)cc1 [Example 391]  21 nM
25. O=C(O)CCNC(=O)c1ccc(CN(C(=O)Nc2cc(Br)cc(C(F)(F)F)c2)[C@H]2CC[C@H](C3CCCCC3)CC2)cc1 [Example 393, 3-{4-[1-(trans-4-Cyclohexylcyclohexyl)-3-(3-bromo-5-trifluoromethylphenyl)ureidomethyl]benzoylamino}propionic acid]  17 nM
26. O=C(O)CCNC(=O)c1ccc(CN(C(=O)Nc2cc(Br)cc(C(F)(F)F)c2)c2ccc(C3CCCCC3)cc2)cc1 [Example 394, 3-{4-[1-(4-Cyclohexylphenyl)-3-(3-bromo-5-trifluoromethylphenyl)ureidomethyl]benzoylamino}propionic acid]  17 nM
27. Cc1cc(NC(=O)N(Cc2ccc(C(=O)Nc3nn[nH]n3)cc2)c2ccc(C3=CCCCC3)cc2)cc(C(F)(F)F)c1 [Example 362, 4-[1-(4-Cyclohex-1-enylphenyl)-3-(3-methyl-5-trifluoromethylphenyl)ureidomethyl]-N-(2H-tetrazol-5-yl)benzamide]  13 nM
28. O=C(Nc1nn[nH]n1)c1ccc(CN(C(=O)Nc2ccc3c(c2)C(F)(F)OC(F)(F)O3)c2ccc(C3CCCCC3)cc2)cc1 [Example 366, 4-[1-(4-Cyclohexylphenyl)-3-(2,2,4,4-tetrafluoro-4H-benzo[1,3]dioxin-6-yl)ureidomethyl]-N-(2H-tetrazol-5-yl)benzamide]  12 nM
29. CC(C)(C)c1ccc(N(Cc2ccc(C(=O)Nc3nn[nH]n3)cc2)C(=O)Nc2ccc(OC(F)(F)F)cc2)cc1 [Example 374, 4-[1-(4-tert-Butylphenyl)-3-(4-trifluoromethoxyphenyl)ureidomethyl]-N-(2H-tetrazol-5-yl)benzamide]  10 nM
30. CCN(c1ccccc1)S(=O)(=O)c1cc(NC(=O)N(Cc2ccc(C(=O)NCCC(=O)O)cc2)[C@H]2CC[C@H](C3CCCCC3)CC2)ccc1C [Example 390, 3-(4-{1-(trans-4-Cyclohexylcyclohexyl)-3-[3-(N-ethyl-N-phenylsulfamoyl)-4-methylphenyl]ureidomethyl}benzoylamino)propionic acid]  6 nM

Same assay, conditions: Glu Bd Assay (III) IC50 (nM), BHK cell membranes, WGA SPA beads, 125I-glucagon

CC(C)(C)[C@H]1CC[C@H](N(Cc2ccc(C(=O)NCC(=O)NO)cc2)C(=O)Nc2ccc(OC(F)(F)F)cc2)CC1 [Example 377, 4-[1-(trans-4-tert-Butylcyclohexyl)-3-(4-trifluoromethoxyphenyl)ureidomethyl]-N-hydroxycarbamomethyl-benzamide] was tested, and the IC50 was 2960 nM.
